Laboratory results from publication PMC4243055 (Cell, 2014).

Target: T1, Cdc25 phosphatase (CnCdc25) (Cryptococcus neoformans, UniProt J9VTJ5)
T1 sequence (J9VTJ5 442-662): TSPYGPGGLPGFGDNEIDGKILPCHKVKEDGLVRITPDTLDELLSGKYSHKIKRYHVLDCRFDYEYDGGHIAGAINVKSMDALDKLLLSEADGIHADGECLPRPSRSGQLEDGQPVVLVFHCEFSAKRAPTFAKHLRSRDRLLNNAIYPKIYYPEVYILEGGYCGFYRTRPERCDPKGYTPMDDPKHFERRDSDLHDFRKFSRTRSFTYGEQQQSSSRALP
Test: in vitro phosphatase assay with OMFP substrate, Michaelis-Menten kinetics
Format: biochemical

Work on `O=C1C(NCCN2CCOCC2)=C(Cl)C(=O)c2ncccc21` [NSC 663284, 7-Chloro-6-(2-morpholin-4-ylethylamino)-quinoline-5,8-dione] yielded a Ki of about 250 µM.
